Data published in patent publication US20240216392A1, “METHODS OF TREAMENT” (Arena Pharmaceuticals, Inc., priority 2022, published 2024).
Read-outs that look alike come from different tables or passages of the source.

How the values were obtained:
[1] = safety and tolerability, Phase 1 study; assay type: in vivo, human
Description: (§1) For Cohorts 1 and 2, the study consisted of a Screening period (Day −28 to −2), an on-site period from Day −1 to Day 16 and a 10-day postdosing follow-up visit (Day 25). Subjects were admitted to the clinic on Day −1 of the assessment period and remained confined to the clinic until completion of the assessment period (or longer if the Investigator deemed it is clinically indicated for safety follow-up). Safety was assessed continuously from signing of informed consent form through follow up visit. Safety assessments including cardiac troponins, vital signs, 12-lead ECGs (electrocardiograms) were performed at screening and daily from Day −1 to Day 16, and follow-up. C-SSRS (Columbia-suicide severity rating scale) was assessed at screening, Days −1, 11, 16, and 25.
as §1, with “all cohorts,” for “Cohorts 1 and 2,”, “Safety assessments including cardiac troponins, vital signs, 12-lead ECGs (electrocardiograms) were performed at screening and daily from Day −1 to Day 16, and follow-up.” left out

[2] = for CSF AUCtau, geometric mean (geometric CV %) / CSF Cavg, geometric mean (geometric CV %) / CSF Cmax, geometric mean (geometric CV %) / CSF Ctrough, geometric mean (geometric CV %): Day 11
serum prolactin = serum prolactin pharmacodynamics, Phase 1 study; assay type: in vivo, human
Description: The PD parameters listed in Table 13 were derived for serum prolactin based on actual times and were calculated using noncompartmental analysis (NCA) methods, as data permitted.

clinical = conditions: both, human, oral; for Tmax: CSF, CSF Tmax

SMILES: C[C@H]1CN2CCNCc3ccc(C(=O)NCC(F)F)c1c32 [Compound 1, (R)—N-(2,2-difluoroethyl)-7-methyl-1,2,3,4,6,7-hexahydro-[1,4]diazepino[6,7,1-hi]indole-8-carboxamide]
- safety and tolerability (CYP3A4, CYP2D6, P-gp; alone or in combination with other probe substrates): safe and generally well-tolerated
- substrate for CYP3A4, CYP2D6 or P-gp (CYP3A4, CYP2D6, P-gp; lack of effect of quinidine on exposure): not a substrate for CYP3A4, CYP2D6, or P-gp
- safety and tolerability ([1]; Cohorts 1 and 2): Favorable safety and tolerability results
- safety and tolerability ([1]; all cohorts): Favorable safety and tolerability results
- CSF concentrations exceeding the relevant Ki for 5-HT2C agonism ([2]; Cohort 2 (12 mg TID) and Cohort 4B (18 mg BID)): ~2 fold
- CSF AUCtau, geometric mean (geometric CV %) ([2]; Cohort 1 (6 mg TID)): 72.07 (25.7) h*ng/mL
- CSF Cavg, geometric mean (geometric CV %) ([2]; Cohort 1 (6 mg TID)): 9.261 (2.2660) ng/mL
- CSF Cmax, geometric mean (geometric CV %) ([2]; Cohort 1 (6 mg TID)): 11.88 (28.1) ng/mL
- CSF Ctrough, geometric mean (geometric CV %) ([2]; Cohort 1 (6 mg TID)): 6.524 (1.8619) ng/mL
- CSF AUCtau, geometric mean (geometric CV %) ([2]; Cohort 2 (12 mg TID)): 167.4 (60.3) h*ng/mL
- CSF Cavg, geometric mean (geometric CV %) ([2]; Cohort 2 (12 mg TID)): 24.61 (18.535) ng/mL
- CSF Cmax, geometric mean (geometric CV %) ([2]; Cohort 2 (12 mg TID)): 26.21 (57.4) ng/mL
- CSF Ctrough, geometric mean (geometric CV %) ([2]; Cohort 2 (12 mg TID)): 18.69 (12.398) ng/mL
- CSF AUCtau, geometric mean (geometric CV %) ([2]; Cohort 3 (12 mg BID)): 157.9 (34.0) h*ng/mL
- CSF Cavg, geometric mean (geometric CV %) ([2]; Cohort 3 (12 mg BID)): 13.76 (4.0021) ng/mL
- CSF Cmax, geometric mean (geometric CV %) ([2]; Cohort 3 (12 mg BID)): 21.34 (33.5) ng/mL
- CSF Ctrough, geometric mean (geometric CV %) ([2]; Cohort 3 (12 mg BID)): 7.027 (3.2364) ng/mL
- CSF AUCtau, geometric mean (geometric CV %) ([2]; Cohort 4A (15 mg BID)): 171.2 (25.4) h*ng/mL
- CSF Cavg, geometric mean (geometric CV %) ([2]; Cohort 4A (15 mg BID)): 14.63 (3.7448) ng/mL
- CSF Cmax, geometric mean (geometric CV %) ([2]; Cohort 4A (15 mg BID)): 24.27 (32.3) ng/mL
- CSF Ctrough, geometric mean (geometric CV %) ([2]; Cohort 4A (15 mg BID)): 6.512 (1.3508) ng/mL
- CSF AUCtau, geometric mean (geometric CV %) ([2]; Cohort 4B (18 mg BID)): 202.5 (30.1) h*ng/mL
- CSF Cavg, geometric mean (geometric CV %) ([2]; Cohort 4B (18 mg BID)): 17.51 (5.7327) ng/mL
- CSF Cmax, geometric mean (geometric CV %) ([2]; Cohort 4B (18 mg BID)): 30.05 (20.9) ng/mL
- CSF Ctrough, geometric mean (geometric CV %) ([2]; Cohort 4B (18 mg BID)): 7.700 (3.5802) ng/mL
- Serum prolactin AUEC, Change From Baseline, geometric mean (serum prolactin; Day 1, Cohort 1 (3 mg doses)): 13.2 ng·h/mL
- Serum prolactin AUEC, Raw, geometric mean (serum prolactin; Day 1, Cohort 1 (3 mg doses)): 95.0 ng·h/mL
- Serum prolactin Emax, Change From Baseline, geometric mean (serum prolactin; Day 1, Cohort 1 (3 mg doses)): 6.6 ng/mL
- Serum prolactin Emax, Raw, geometric mean (serum prolactin; Day 1, Cohort 1 (3 mg doses)): 17.8 ng/mL
- Serum prolactin Tmax, Raw, median (serum prolactin; Day 1, Cohort 1 (3 mg doses)): 7.84 h
- Serum prolactin AUEC, Change From Baseline, geometric mean (serum prolactin; Day 1, Cohort 2 (6 mg doses)): 16.3 ng·h/mL
- Serum prolactin AUEC, Raw, geometric mean (serum prolactin; Day 1, Cohort 2 (6 mg doses)): 82.5 ng·h/mL
- Serum prolactin Emax, Change From Baseline, geometric mean (serum prolactin; Day 1, Cohort 2 (6 mg doses)): 4.4 ng/mL
- Serum prolactin Emax, Raw, geometric mean (serum prolactin; Day 1, Cohort 2 (6 mg doses)): 13.9 ng/mL
- Serum prolactin Tmax, Raw, median (serum prolactin; Day 1, Cohort 2 (6 mg doses)): 2.01 h
- Serum prolactin AUEC, Change From Baseline, geometric mean (serum prolactin; Day 1, Cohort 3 (6 mg doses)): 15.0 ng·h/mL
- Serum prolactin AUEC, Raw, geometric mean (serum prolactin; Day 1, Cohort 3 (6 mg doses)): 93.6 ng·h/mL
- Serum prolactin Emax, Change From Baseline, geometric mean (serum prolactin; Day 1, Cohort 3 (6 mg doses)): 5.8 ng/mL
- Serum prolactin Emax, Raw, geometric mean (serum prolactin; Day 1, Cohort 3 (6 mg doses)): 16.4 ng/mL
- Serum prolactin Tmax, Raw, median (serum prolactin; Day 1, Cohort 3 (6 mg doses)): 1.56 h
- Serum prolactin AUEC, Change From Baseline, geometric mean (serum prolactin; Day 1, Cohort 4A (6 mg doses)): 12.7 ng·h/mL
- Serum prolactin AUEC, Raw, geometric mean (serum prolactin; Day 1, Cohort 4A (6 mg doses)): 99.6 ng·h/mL
- Serum prolactin Emax, Change From Baseline, geometric mean (serum prolactin; Day 1, Cohort 4A (6 mg doses)): 9.1 ng/mL
- Serum prolactin Emax, Raw, geometric mean (serum prolactin; Day 1, Cohort 4A (6 mg doses)): 21.5 ng/mL
- Serum prolactin Tmax, Raw, median (serum prolactin; Day 1, Cohort 4A (6 mg doses)): 2.01 h
- Serum prolactin AUEC, Raw, geometric mean (serum prolactin; Day 1, Cohort 4B (6 mg doses)): 80.4 ng·h/mL
- Serum prolactin Emax, Change From Baseline, geometric mean (serum prolactin; Day 1, Cohort 4B (6 mg doses)): 4.2 ng/mL
- Serum prolactin Emax, Raw, geometric mean (serum prolactin; Day 1, Cohort 4B (6 mg doses)): 15.6 ng/mL
- Serum prolactin Tmax, Raw, median (serum prolactin; Day 1, Cohort 4B (6 mg doses)): 0.48 h
- Serum prolactin AUEC, Change From Baseline, geometric mean (serum prolactin; Day 10, Cohort 1 (6 mg TID)): 20.7 ng·h/mL
- Serum prolactin AUEC, Raw, geometric mean (serum prolactin; Day 10, Cohort 1 (6 mg TID)): 92.4 ng·h/mL
- Serum prolactin Emax, Change From Baseline, geometric mean (serum prolactin; Day 10, Cohort 1 (6 mg TID)): 6.0 ng/mL
- Serum prolactin Emax, Raw, geometric mean (serum prolactin; Day 10, Cohort 1 (6 mg TID)): 16.2 ng/mL
- Serum prolactin Tmax, Raw, median (serum prolactin; Day 10, Cohort 1 (6 mg TID)): 3.00 h
- Serum prolactin AUEC, Change From Baseline, geometric mean (serum prolactin; Day 10, Cohort 2 (12 mg TID)): 14.4 ng·h/mL
- Serum prolactin AUEC, Raw, geometric mean (serum prolactin; Day 10, Cohort 2 (12 mg TID)): 92.0 ng·h/mL
- Serum prolactin Emax, Change From Baseline, geometric mean (serum prolactin; Day 10, Cohort 2 (12 mg TID)): 5.8 ng/mL
- Serum prolactin Emax, Raw, geometric mean (serum prolactin; Day 10, Cohort 2 (12 mg TID)): 16.0 ng/mL
- Serum prolactin Tmax, Raw, median (serum prolactin; Day 10, Cohort 2 (12 mg TID)): 7.84 h
- Serum prolactin AUEC, Change From Baseline, geometric mean (serum prolactin; Day 10, Cohort 3 (12 mg BID)): 13.5 ng·h/mL
- Serum prolactin AUEC, Raw, geometric mean (serum prolactin; Day 10, Cohort 3 (12 mg BID)): 99.9 ng·h/mL
- Serum prolactin Emax, Change From Baseline, geometric mean (serum prolactin; Day 10, Cohort 3 (12 mg BID)): 7.2 ng/mL
- Serum prolactin Emax, Raw, geometric mean (serum prolactin; Day 10, Cohort 3 (12 mg BID)): 18.2 ng/mL
- Serum prolactin Tmax, Raw, median (serum prolactin; Day 10, Cohort 3 (12 mg BID)): 1.01 h
- Serum prolactin AUEC, Raw, geometric mean (serum prolactin; Day 10, Cohort 4A (15 mg BID)): 84.3 ng·h/mL
- Serum prolactin Emax, Change From Baseline, geometric mean (serum prolactin; Day 10, Cohort 4A (15 mg BID)): 4.7 ng/mL
- Serum prolactin Emax, Raw, geometric mean (serum prolactin; Day 10, Cohort 4A (15 mg BID)): 14.7 ng/mL
- Serum prolactin Tmax, Raw, median (serum prolactin; Day 10, Cohort 4A (15 mg BID)): 2.00 h
- Serum prolactin AUEC, Change From Baseline, geometric mean (serum prolactin; Day 10, Cohort 4B (18 mg BID)): 17.8 ng·h/mL
- Serum prolactin AUEC, Raw, geometric mean (serum prolactin; Day 10, Cohort 4B (18 mg BID)): 99.4 ng·h/mL
- Serum prolactin Emax, Change From Baseline, geometric mean (serum prolactin; Day 10, Cohort 4B (18 mg BID)): 8.1 ng/mL
- Serum prolactin Emax, Raw, geometric mean (serum prolactin; Day 10, Cohort 4B (18 mg BID)): 16.7 ng/mL
- Serum prolactin Tmax, Raw, median (serum prolactin; Day 10, Cohort 4B (18 mg BID)): 1.10 h
- Kp (clinical; CSF / free (unbound) plasma, CSF/P Cmax ratio, across all cohorts): 0.663 to 0.764
- Kp (clinical; CSF / free (unbound) plasma, CSF/P Ctrough ratio, across all cohorts): 1.26 to 1.92
- Kp (clinical; CSF / free drug in plasma, 6 mg, CSF/P Ctrough, mean (SD), CSF to free drug plasma ratio, Day 11, Cohort 1 (6 mg TID)): 1.26
- Kp (clinical; CSF / free drug in plasma, 12 mg, CSF/P Ctrough, mean (SD), CSF to free drug plasma ratio, Day 11, Cohort 2 (12 mg TID)): 1.31
- Kp (clinical; CSF / free drug in plasma, 12 mg, CSF/P Ctrough, mean (SD), CSF to free drug plasma ratio, Day 11, Cohort 3 (12 mg BID)): 1.92
- Kp (clinical; CSF / free drug in plasma, 15 mg, CSF/P Ctrough, mean (SD), CSF to free drug plasma ratio, Day 11, Cohort 4A (15 mg BID)): 1.48
- Kp (clinical; CSF / free drug in plasma, 18 mg, CSF/P Ctrough, mean (SD), CSF to free drug plasma ratio, Day 11, Cohort 4B (18 mg BID)): 1.69
- Tmax (clinical; 6 mg, median (minimum, maximum), Day 11, Cohort 1 (6 mg TID)): 2.52 h
- Tmax (clinical; 12 mg, median (minimum, maximum), Day 11, Cohort 2 (12 mg TID)): 3.04 h
- Tmax (clinical; 12 mg, median (minimum, maximum), Day 11, Cohort 3 (12 mg BID)): 2.53 h
- Tmax (clinical; 15 mg, median (minimum, maximum), Day 11, Cohort 4A (15 mg BID)): 3.02 h
- Tmax (clinical; 18 mg, median (minimum, maximum), Day 11, Cohort 4B (18 mg BID)): 3.06 h
- Tmax (clinical; Day 11, across cohorts): 2.52 to 3.06 h
